Measured values as given in patent US20190175534A1, “PHARMACEUTICAL COMPOSITIONS COMPRISING DGLA AND USE OF SAME” (DS Biopharma Limited, priority 2016, published 2019).

Assays:
[1] = tested on: patients with moderate to severe atopic dermatitis; test: Phase II study of oral DS107G: safety; assay type: in vivo, human; conditions: oral 2 g once daily 8 weeks
Source text: Subjects visited the clinic on 6 occasions: at screening, baseline, week 2, week 4, week 8 (end of treatment/early termination) and week 10 (follow-up). All subjects exited the study at the week 10 visit. The primary efficacy variable was the proportion of patients achieving an IGA of 0 (clear) or 1 (almost clear), and a decrease of at least 2 points in IGA at week 8. Secondary efficacy variables included: IGA at other visits, pruritus (obtained from the SCORAD visual analog scale), EASI, BSA, POEM, DLQI, SCORAD and TEWL (for selected sites only). Safety was assessed through adverse events, physical examination, vital signs and safety laboratory tests (including pregnancy tests for women of childbearing potential), Pharmacokinetic samples were obtained at Baseline (Day 0), week 4 and week 8 visits in order to measure total and free DGLA plasma trough levels. Separate plasma samples were retained for later analysis of total fatty acid profile and interleukin profile.
Laboratory tests were performed at screening, Day 0, Week 4 and Week 8. If Week 8 results indicated a clinically significant change from baseline, laboratory tests were also performed at Week 10. […]
Efficacy was evaluated on the basis of the ITT population and analyses were performed based on the randomized treatment and not on the treatment received. […]

[2] = design: species or system human; conditions: in vivo
Method: A single-center, double-blind, randomized, placebo-controlled, two part Phase one study was performed in healthy male and female subjects aged 18 to 45 years inclusive. The primary objective of this study was to assess the safety and plasma pharmacokinetics (PK) of orally administered single doses and orally administered multiple doses of DS107G capsules (once daily for 28 days) in healthy subjects.
(§1) Subjects were randomly assigned in a 3:1 ratio of DG107G to placebo by block randomization. Single dose part one of the study comprised three cohorts of eight subjects each, with the addition of Cohort four based on evaluation of the safety data of Cohort three by the Safety Monitoring Committee (SMC). A single oral dose of DS107G or matching placebo was administered to fasted subjects in Cohorts one to three (500, 1000, and 2000 mg, respectively) in parallel; subjects in Cohort four were administered a dose of 4000 mg following completion of Cohort three. Subjects in Cohort two received 1000 mg or matching placebo in the fed state at ≥14 days after the first dose.
Safety assessments were monitored throughout the study.
In Part one of the study, subjects in Cohorts one to three were administered a single dose of study drug (either 500-, 1000-, or 2000-mg as 500-mg DS107G capsules or matching placebo capsules) in parallel on study Day 1 after at least an 8-hour fast, according to Table 20. Cohort 4 was initiated following the review of safety data from Cohort 3 by the SMC.

[3] = Phase 1 food effect on single-dose plasma pharmacokinetics (1000 mg, fasted vs fed); assay type: in vivo, human
Method: The effect of food on the PK of an orally administered single dose of DS107G capsule in healthy subjects; and
as §1
Food effect was evaluated in Cohort two at least 14 days after the first dose at which time a second single dose was administered, Subjects were administered a 1000-mg dose of study drug with 240 mL of water after a 10-hour fasting period and 30 minutes after starting consumption of a meal. Subjects then refrained from food intake for at least 4 hours after dosing, Food consumption was standardized for at least 12 hours after dosing using a standardized high-fat meal (800 to 1000 kcal with 500 to 600 kcal from fat and 250 kcal from carbohydrates). A typical standard test meal consisted of two eggs fried in butter, two strips of bacon, two slices of toast with butter, 120 mL of hash brown potatoes, and 240 mL of whole milk.
Subjects in Cohort two undergoing evaluation of the food effect on oral 1000 mg DGLA capsules were restricted from food consumption for at least 4 hours after dosing. Food consumption was standardized for at least 12 hours post dose using a standardized high-fat meal.

[4] = Phase 1 multiple-dose (28 days) plasma pharmacokinetics of free and total DGLA, incl. steady state; assay type: in vivo, human; conditions: for Peak Trough Fluctuation (PTF), free DGLA, mean: steady state Day 28 (0-24 hours); for Peak Trough Fluctuation (PTF), mean (Table 29, total DGLA): steady-state Day 28 (0-24 hours)
Method: Multiple dose part two of the study comprised two cohorts (Cohorts five and six) of eight subjects each, who were administered multiple doses of study drug in the fasted state for 28 days. Subjects in Cohorts five and six received DS107G at 2000 or 4000 mg, respectively, or matching placebo once daily for 28 days. Cohort six was started after Cohort five's safety data were evaluated by the SMC. No interim analysis was planned. […]
In Part two of the study (Cohorts five and six), subjects were administered study drug (500-mg DS107G capsules or matching placebo capsules) once daily in the fasted state for 28 days. Subjects in Cohort five received study drug first and, if they tolerated the 2000-mg daily dose for the first 14 days, subjects in Cohort six were started on the 4000-mg daily dose for 28 days.
PK parameter was computed after correcting the dosed DGLA concentrations with baseline DGLA concentrations.

[5] = tested on: healthy male and female subjects; test: Phase 1 study safety and tolerability (single and multiple dose); conditions: for Tolerability: healthy volunteers
Method: Screening procedures were conducted for both parts one and two before the start of the study on Day −1 (Baseline) by evaluating the safety assessments.
Subjects were monitored throughout their confinement at the Phase 1 unit for adverse reactions to the study drug and/or procedures.
Safety analyses were performed on the safety population tabulated by treatment arm, cohort, and visit. All safety data were characterized by descriptive statistical tools. […] Evaluation of safety assessments was performed in a descriptive manner. Continuous variables were characterized by their mean, standard deviation (SD), median, minimum and maximum values; discrete variables were characterized by their absolute (frequency) and relative (percentage) distribution.

[6] = first value printed for the two dose cohorts (2000 mg assumed)
[7] = second value printed for the two dose cohorts (4000 mg assumed)

Structure (SMILES): CCCCC/C=C\C/C=C\C/C=C\CCCCCCC(=O)O [DGLA, Dihomo gamma linolenic acid]
- Drug related Serious Adverse Events [1]: no drug related Serious Adverse Events
- Tolerability [1]: very well tolerated
- Linearity of elimination half-life or clearance, free or total DGLA ([2]; human): no evidence of nonlinear pharmacokinetics
- Mean baseline-corrected Cmax and AUC0-24 for free and total DGLA versus dose [2]: increased in a linear manner
- Free DGLA Cmax occurred sooner under fasted than fed conditions (median) ([3]; single 1000 mg dose): 1 h
- Mean baseline-corrected free DGLA Cmax, fasted over fed ([3]; single 1000 mg dose): about 3 fold
- Mean baseline-corrected total DGLA AUC0-24, fasted over fed ([3]; single 1000 mg dose): about 1,8 fold
- Mean baseline-corrected total DGLA Cmax, fasted over fed ([3]; single 1000 mg dose): about 1.5 fold
- Mean free DGLA baseline-corrected AUC0-24, fasted over fed ([3]; single 1000 mg dose): about 2 fold
- Mean baseline-corrected AUC0-24, total DGLA over free DGLA ([3]; single 1000 mg dose, fasted): ~54 fold
- Mean baseline-corrected Cmax, total DGLA over free DGLA ([3]; single 1000 mg dose, fasted): ~10 fold
- Mean baseline-corrected AUC0-24, total DGLA over free DGLA ([3]; single 1000 mg dose, fed): ~56 fold
- Mean baseline-corrected Cmax, total DGLA over free DGLA ([3]; single 1000 mg dose, fed): ~20 fold
- Rate and extent of total DGLA absorption (mean Cmax and AUC0-24), fasted higher than fed ([3]; single 1000-mg dose): approximately 50%
- Mean accumulation ratio (AR) for AUC, free DGLA ([4]; 2000 mg daily): ~3.3
- Mean accumulation ratio (AR) for Cmax, free DGLA ([4]; 2000 mg daily): ~2.8
- Mean accumulation ratio (AR) for AUC, free DGLA ([4]; 4000 mg daily): ~1.6
- Mean accumulation ratio (AR) for Cmax, free DGLA ([4]; 4000 mg daily): ~1.4
- Time at which plasma concentrations reach steady-state (free and total DGLA) ([4]; 2000 and 4000 mg daily): ~14 days
- Mean baseline-corrected free DGLA AUC0-24, 4000 mg over 2000 mg dose ([4]; Day 1): ~2.5 fold
- Mean baseline-corrected free DGLA Cmax, 4000 mg over 2000 mg dose ([4]; Day 1): ~3 fold
- Mean baseline-corrected total DGLA AUC0-24, 4000 mg over 2000 mg dose ([4]; Day 1): ~1.5 fold
- Mean baseline-corrected total DGLA Cmax, 4000 mg over 2000 mg dose ([4]; Day 1): ~1.5 fold
- Mean baseline-corrected free DGLA AUC0-24, 4000 mg over 2000 mg dose ([4]; Day 28): ~1.7 fold
- Mean baseline-corrected free DGLA Cmax, 4000 mg over 2000 mg dose ([4]; Day 28): ~1.4 fold
- Mean baseline-corrected total DGLA AUC0-24, 4000 mg over 2000 mg dose ([4]; Day 28): ~1.4 fold
- Mean baseline-corrected total DGLA Cmax, 4000 mg over 2000 mg dose ([4]; Day 28): ~1.2 fold
- Time of peak mean concentration of free DGLA after dosing ([4]; Days 1 and 28, 2000 and 4000 mg daily): about 4 hours
- Increase of average concentration at steady state, free DGLA, dose doubled from 2000 to 4000 mg daily ([4]; in vivo): 1.6 fold
- Increase of average concentration at steady state, total DGLA, dose doubled from 2000 to 4000 mg daily ([4]; in vivo): 1.2 fold
- Peak Trough Fluctuation (PTF), free DGLA, mean [4, 6]: ~430%
- Peak Trough Fluctuation (PTF), free DGLA, mean [4, 7]: ~490%
- Peak Trough Fluctuation (PTF), mean (Table 29, total DGLA) [4, 6]: 62.5%
- Peak Trough Fluctuation (PTF), mean (Table 29, total DGLA) [4, 7]: 44.9%
- Tolerability ([5]; 2000- or 4000-mg once daily for 28 consecutive days): tolerated well
- Deaths ([5]; multi-dose study): no deaths
- Severe TEAEs ([5]; multiple dose): no severe TEAEs
- Total number of TEAEs among active-treated subjects ([5]; multiple dose): 52
- Proportion of subjects reporting diarrhea ([5]; multiple dose, 2000-mg group (3/6)): 50%
- Proportion of subjects reporting diarrhea ([5]; multiple dose, 4000-mg group (4/6)): 66.7%
- Subjects reporting nausea ([5]; multiple dose, 4000-mg treatment group (10 events among 4/6)): 66.7%
- Incidence of TEAEs among active-treated subjects ([5]; multiple dose, 11/12 subjects): 91.73%
- Tolerability ([5]; single dose 500, 1000, 2000 or 4000 mg): well tolerated
- Incidence of diarrhea (loose stool), active-treated subjects ([5]; single dose, 5/24 subjects): 20.8%
